Legend:
Format in all cases: in vivo
[1] = system: ducksalad (Heteranthera limosa); test: Test B flooded paddy test; conditions: Heteranthera limosa, 250 g ai/ha, Flood; 0 to 100 scale where 0 is no effect and 100 is complete control; read-out: Ducksalad plant response rating
How it was run: (§1)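 Visual ratings (0 none to 100 complete control) are relative to untreated plants, taken 13–15 d after treatment in a greenhouse. Test material went straight into floodwater standing 3 cm above the soil, kept constant, on plants at the 2-leaf stage.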

[2] = system: rice (Oryra sativa); test: Test B flooded paddy test; conditions: Oryza sativa, 250 g ai/ha, Flood; 0 to 100 scale where 0 is no effect and 100 is complete control; read-out: Rice plant response rating
How it was run: as §1

[3] = system: barnyardgrass (Echinochloa crus-galli); test: Test B flooded paddy test; conditions: Echinochloa crus-galli, 250 g ai/ha, Flood; 0 to 100 scale where 0 is no effect and 100 is complete control; read-out: Barnyardgrass plant response rating
How it was run: as §1

[4] = system: sedge, umbrella (small-flower umbrella sedge, Cyperus difformis); test: Test B flooded paddy test; conditions: Cyperus difformis, 250 g ai/ha, Flood; 0 to 100 scale where 0 is no effect and 100 is complete control; read-out: Sedge, Umbrella plant response rating
How it was run: as §1

[5] = system: giant foxtail (Setaria faberii); test: Test A preemergence; conditions: Setaria faberi, pre-emergence, 240 h, 0 to 100 scale where 0 is no effect and 100 is complete control, read-out: Foxtail, Giant plant response rating; for pest or weed control at 31 g/ha: 31 g ai/ha, Preemergence; for pest or weed control at 125 g/ha: 125 g ai/ha, preemergence, approx. 10 d
How it was run: (§2)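 Preemergence soil spray on seeded pots or post-emergence spray on 1–2 leaf plants, in loam–sand blend. Greenhouse ~10 d. Visual rating 0–100 against untreated plants.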

[6] = system: pigweed (Amaranthus retroflexus); test: Test A preemergence; conditions: Amaranthus retroflexus, pre-emergence, 240 h, 0 to 100 scale where 0 is no effect and 100 is complete control, read-out: Pigweed plant response rating; for pest or weed control at 31 g/ha: 31 g ai/ha, Preemergence; for pest or weed control at 125 g/ha: 125 g ai/ha, preemergence, approx. 10 d
[7] = system: ryegrass, Italian (Italian ryegrass, Lolium multiflorum); test: Test A preemergence; conditions: Lolium multiflorum, pre-emergence, 240 h, 0 to 100 scale where 0 is no effect and 100 is complete control, read-out: Ryegrass, Italian plant response rating; for pest or weed control at 31 g/ha: 31 g ai/ha, Preemergence; for pest or weed control at 125 g/ha: 125 g ai/ha, preemergence, approx. 10 d
How it was run: as §2

[8] = system: ragweed (common ragweed, Ambrosia elatior); test: Test A preemergence; conditions: Ambrosia artemisiifolia, pre-emergence, 240 h, 0 to 100 scale where 0 is no effect and 100 is complete control, read-out: Ragweed plant response rating; for pest or weed control at 31 g/ha: 31 g ai/ha, Preemergence; for pest or weed control at 125 g/ha: 125 g ai/ha, preemergence, approx. 10 d
How it was run: as §2

[9] = system: barnyardgrass (Echinochloa crus-galli); test: Test A preemergence; conditions: Echinochloa crus-galli, pre-emergence, 240 h, 0 to 100 scale where 0 is no effect and 100 is complete control, read-out: Barnyardgrass plant response rating; for pest or weed control at 31 g/ha: 31 g ai/ha, Preemergence; for pest or weed control at 125 g/ha: 125 g ai/ha, preemergence, approx. 10 d
How it was run: as §2

[10] = system: Kochia (Kochia scoparia); test: Test A preemergence; conditions: Bassia scoparia, pre-emergence, 240 h, 0 to 100 scale where 0 is no effect and 100 is complete control, read-out: Kochia plant response rating; for pest or weed control at 31 g/ha: 31 g ai/ha, Preemergence; for pest or weed control at 125 g/ha: 125 g ai/ha, preemergence, approx. 10 d
How it was run: as §2

[11] = system: giant foxtail (Setaria faberii); test: Test A postemergence; conditions: Setaria faberi, post-emergence, 240 h; for pest or weed control at 125 g/ha: 125 g ai/ha, postemergence, visual injury vs untreated controls after approx. 10 d, 0 = no effect, 100 = complete control, read-out: Foxtail, Giant plant response rating (0 to 100 scale); for pest or weed control at 31 g/ha: Postemergence, 31 g ai/ha, visual injury after approx. 10 d, 0 to 100 scale, 0 no effect, 100 complete control, read-out: Plant response rating, Foxtail, Giant
How it was run: as §2

[12] = system: pigweed (Amaranthus retroflexus); test: Test A postemergence; conditions: Amaranthus retroflexus, post-emergence, 240 h; for pest or weed control at 125 g/ha: 125 g ai/ha, postemergence, visual injury vs untreated controls after approx. 10 d, 0 = no effect, 100 = complete control, read-out: Pigweed plant response rating (0 to 100 scale); for pest or weed control at 31 g/ha: Postemergence, 31 g ai/ha, visual injury after approx. 10 d, 0 to 100 scale, 0 no effect, 100 complete control, read-out: Plant response rating, Pigweed
How it was run: as §2

[13] = system: ryegrass, Italian (Italian ryegrass, Lolium multiflorum); test: Test A postemergence; conditions: Lolium multiflorum, post-emergence, 240 h; for pest or weed control at 125 g/ha: 125 g ai/ha, postemergence, visual injury vs untreated controls after approx. 10 d, 0 = no effect, 100 = complete control, read-out: Ryegrass, Italian plant response rating (0 to 100 scale); for pest or weed control at 31 g/ha: Postemergence, 31 g ai/ha, visual injury after approx. 10 d, 0 to 100 scale, 0 no effect, 100 complete control, read-out: Plant response rating, Ryegrass, Italian
How it was run: as §2

[14] = system: ragweed (common ragweed, Ambrosia elatior); test: Test A postemergence; conditions: Ambrosia artemisiifolia, post-emergence, 240 h; for pest or weed control at 125 g/ha: 125 g ai/ha, postemergence, visual injury vs untreated controls after approx. 10 d, 0 = no effect, 100 = complete control, read-out: Ragweed plant response rating (0 to 100 scale); for pest or weed control at 31 g/ha: Postemergence, 31 g ai/ha, visual injury after approx. 10 d, 0 to 100 scale, 0 no effect, 100 complete control, read-out: Plant response rating, Ragweed
How it was run: as §2

[15] = system: Galium (catchweed bedstraw, Galium aparine); test: Test A postemergence; conditions: Galium, post-emergence, 240 h; for pest or weed control at 125 g/ha: 125 g ai/ha, postemergence, visual injury vs untreated controls after approx. 10 d, 0 = no effect, 100 = complete control, read-out: Galium plant response rating (0 to 100 scale); for pest or weed control at 31 g/ha: Postemergence, 31 g ai/ha, visual injury after approx. 10 d, 0 to 100 scale, 0 no effect, 100 complete control, read-out: Plant response rating, Galium
How it was run: as §2

[16] = system: barnyardgrass (Echinochloa crus-galli); test: Test A postemergence; conditions: Echinochloa crus-galli, post-emergence, 240 h; for pest or weed control at 125 g/ha: 125 g ai/ha, postemergence, visual injury vs untreated controls after approx. 10 d, 0 = no effect, 100 = complete control, read-out: Barnyardgrass plant response rating (0 to 100 scale); for pest or weed control at 31 g/ha: Postemergence, 31 g ai/ha, visual injury after approx. 10 d, 0 to 100 scale, 0 no effect, 100 complete control, read-out: Plant response rating, Barnyardgrass
How it was run: as §2

[17] = system: wheat (Triticum aestivum); test: Test A postemergence; conditions: Triticum aestivum, post-emergence, 240 h; for plant injury at 125 g/ha: 125 g ai/ha, postemergence, visual injury vs untreated controls after approx. 10 d, 0 = no effect, 100 = complete control, read-out: Wheat plant response rating (0 to 100 scale); for plant injury at 31 g/ha: Postemergence, 31 g ai/ha, visual injury after approx. 10 d, 0 to 100 scale, 0 no effect, 100 complete control, read-out: Plant response rating, Wheat
How it was run: as §2

[18] = system: Kochia (Kochia scoparia); test: Test A postemergence; conditions: Bassia scoparia, post-emergence, 240 h; for pest or weed control at 125 g/ha: 125 g ai/ha, postemergence, visual injury vs untreated controls after approx. 10 d, 0 = no effect, 100 = complete control, read-out: Kochia plant response rating (0 to 100 scale); for pest or weed control at 31 g/ha: Postemergence, 31 g ai/ha, visual injury after approx. 10 d, 0 to 100 scale, 0 no effect, 100 complete control, read-out: Plant response rating, Kochia
How it was run: as §2

[19] = system: blackgrass (Alopecurus myosuroides); test: Test A postemergence; conditions: Alopecurus myosuroides, post-emergence, 240 h; for pest or weed control at 125 g/ha: 125 g ai/ha, postemergence, visual injury vs untreated controls after approx. 10 d, 0 = no effect, 100 = complete control, read-out: Blackgrass plant response rating (0 to 100 scale); for pest or weed control at 31 g/ha: Postemergence, 31 g ai/ha, visual injury after approx. 10 d, 0 to 100 scale, 0 no effect, 100 complete control, read-out: Plant response rating, Blackgrass
How it was run: as §2

[20] = system: corn (Zea mays); test: Test A postemergence; conditions: Zea mays, post-emergence, 240 h; for plant injury at 125 g/ha: 125 g ai/ha, postemergence, visual injury vs untreated controls after approx. 10 d, 0 = no effect, 100 = complete control, read-out: Corn plant response rating (0 to 100 scale); for Corn plant response rating (crop injury, 0 = no effect, 100 = complete kill) at 31 g/ha: Postemergence, 31 g ai/ha, visual injury after approx. 10 d, 0 to 100 scale, 100 complete control
How it was run: as §2

Row | Structure (SMILES) | pest or weed control at 250 g/ha [1] [%] | pest or weed control at 250 g/ha [2] [%] | pest or weed control at 250 g/ha [3] [%] | pest or weed control at 250 g/ha [4] [%] | pest or weed control at 31 g/ha [5] [%] | pest or weed control at 125 g/ha [5] [%] | pest or weed control at 31 g/ha [6] [%] | pest or weed control at 125 g/ha [6] [%] | pest or weed control at 31 g/ha [7] [%] | pest or weed control at 125 g/ha [7] [%] | pest or weed control at 31 g/ha [8] [%] | pest or weed control at 125 g/ha [8] [%] | pest or weed control at 31 g/ha [9] [%] | pest or weed control at 125 g/ha [9] [%] | pest or weed control at 31 g/ha [10] [%] | pest or weed control at 125 g/ha [10] [%] | pest or weed control at 125 g/ha [11] [%] | pest or weed control at 31 g/ha [11] [%] | pest or weed control at 125 g/ha [12] [%] | pest or weed control at 31 g/ha [12] [%] | further results
1 | COCOCc1ccccc1NC(=O)[C@H]1C(=O)N(C)C[C@@H]1c1cccc(C(F)(F)F)c1 (racemic) [Compound 1161] | 0 | 15 | 0 | 0 | 0 | 20 | 0 | 0 | 0 | 0 | 0 | 0 | 0 | 0 | 0 | 0 | 0 | 0 | 0 | 0 | pest or weed control at 125 g/ha [13]: 0%; pest or weed control at 31 g/ha [13]: 0%; pest or weed control at 125 g/ha [14]: 0%; pest or weed control at 31 g/ha [14]: 0%; pest or weed control at 125 g/ha [15]: 0%; pest or weed control at 31 g/ha [15]: 0%; pest or weed control at 125 g/ha [16]: 0%; pest or weed control at 31 g/ha [16]: 0%; plant injury at 125 g/ha [17]: 0%; plant injury at 31 g/ha [17]: 0%; pest or weed control at 125 g/ha [18]: 0%; pest or weed control at 31 g/ha [18]: 0%; pest or weed control at 125 g/ha [19]: 0%; pest or weed control at 31 g/ha [19]: 0%; plant injury at 125 g/ha [20]: 0%; Corn plant response rating (crop injury, 0 = no effect, 100 = complete kill) at 31 g/ha [20]: 0%
2 | CN1C[C@H](c2cccc(C(F)(F)F)c2)[C@@H](C(=O)Nc2ccccc2CCO)C1=O (racemic) [Compound 1162] | 80 | 15 | 35 | 0 | 50 | 90 | 0 | 0 | 0 | 20 | 0 | 0 | 40 | 90 | 0 | 0 | 40 | 30 | 0 | 0 | pest or weed control at 125 g/ha [13]: 0%; pest or weed control at 31 g/ha [13]: 0%; pest or weed control at 125 g/ha [14]: 0%; pest or weed control at 31 g/ha [14]: 0%; pest or weed control at 125 g/ha [15]: 50%; pest or weed control at 31 g/ha [15]: 0%; pest or weed control at 125 g/ha [16]: 60%; pest or weed control at 31 g/ha [16]: 30%; plant injury at 125 g/ha [17]: 20%; plant injury at 31 g/ha [17]: 0%; pest or weed control at 125 g/ha [18]: 0%; pest or weed control at 31 g/ha [18]: 0%; pest or weed control at 125 g/ha [19]: 0%; pest or weed control at 31 g/ha [19]: 0%; plant injury at 125 g/ha [20]: 0%; Corn plant response rating (crop injury, 0 = no effect, 100 = complete kill) at 31 g/ha [20]: 0%
